Measured values: ChEMBL document CHEMBL5463725, “Data for DCP probe BAY-277” (2023)

Experiments:
[1] = target: Dual specificity protein kinase CLK1 (Homo sapiens) (UniProt P49759); experiment: Inhibition of CLK1(h) at 10.0 µM in the Eurofins Kinase panel; details: Compound concentration 10.0 uM
[2] = target: Sodium/potassium-transporting ATPase (Sus scrofa) (UniProt P05027+P05024+D2WKD8+D2WKD7+F1ST41); experiment: Inhibition of ATPase, Na+/K+, Heart, Pig at 10.0 µM in the Eurofins Panlabs Safety Screen; format: protein-complex assay; details: Compound concentration 10.0 uM
[3] = target: Alpha-1A adrenergic receptor (Rattus norvegicus) (UniProt P43140); experiment: Inhibition of Adrenergic alpha1A at 10.0 µM in the Eurofins Panlabs Safety Screen; details: Compound concentration 10.0 uM
[4] = target: Beta-1 adrenergic receptor (Homo sapiens) (UniProt P08588); experiment: Inhibition of Adrenergic beta1 at 10.0 µM in the Eurofins Panlabs Safety Screen; details: Compound concentration 10.0 uM
[5] = target: Androgen receptor (Homo sapiens) (UniProt P10275); experiment: Inhibition of Androgen (Testosterone) at 10.0 µM in the Eurofins Panlabs Safety Screen; details: Compound concentration 10.0 uM
Chain of Androgen receptor (Homo sapiens) (P10275 whole entry): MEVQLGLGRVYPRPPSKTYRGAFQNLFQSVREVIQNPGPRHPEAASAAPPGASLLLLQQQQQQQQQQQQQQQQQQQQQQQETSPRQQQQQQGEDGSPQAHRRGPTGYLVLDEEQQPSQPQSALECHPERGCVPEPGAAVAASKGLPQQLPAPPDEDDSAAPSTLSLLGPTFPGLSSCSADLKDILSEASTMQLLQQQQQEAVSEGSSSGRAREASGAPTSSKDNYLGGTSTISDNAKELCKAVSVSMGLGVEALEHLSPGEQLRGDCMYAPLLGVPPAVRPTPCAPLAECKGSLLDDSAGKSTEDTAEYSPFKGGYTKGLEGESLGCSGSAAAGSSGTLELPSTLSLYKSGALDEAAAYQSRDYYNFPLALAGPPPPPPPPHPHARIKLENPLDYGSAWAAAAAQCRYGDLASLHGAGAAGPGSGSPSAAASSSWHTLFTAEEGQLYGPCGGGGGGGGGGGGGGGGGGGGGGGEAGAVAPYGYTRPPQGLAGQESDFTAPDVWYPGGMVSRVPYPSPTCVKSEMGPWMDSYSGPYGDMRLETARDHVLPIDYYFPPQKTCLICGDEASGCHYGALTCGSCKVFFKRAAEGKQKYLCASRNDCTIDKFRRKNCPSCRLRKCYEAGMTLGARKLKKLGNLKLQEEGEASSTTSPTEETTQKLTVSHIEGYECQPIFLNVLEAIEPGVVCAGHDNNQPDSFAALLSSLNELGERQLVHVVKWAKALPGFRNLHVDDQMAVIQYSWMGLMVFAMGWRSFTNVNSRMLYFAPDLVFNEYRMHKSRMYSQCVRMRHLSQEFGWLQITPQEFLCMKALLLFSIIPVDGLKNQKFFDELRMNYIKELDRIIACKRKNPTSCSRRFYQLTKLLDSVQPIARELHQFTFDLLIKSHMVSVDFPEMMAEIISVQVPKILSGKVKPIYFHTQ

[6] = target: D(2) dopamine receptor (Homo sapiens) (UniProt P14416); experiment: Inhibition of Dopamine D2L at 10.0 µM in the Eurofins Panlabs Safety Screen; details: Compound concentration 10.0 uM
Chain of D(2) dopamine receptor (Homo sapiens) (P14416 whole entry): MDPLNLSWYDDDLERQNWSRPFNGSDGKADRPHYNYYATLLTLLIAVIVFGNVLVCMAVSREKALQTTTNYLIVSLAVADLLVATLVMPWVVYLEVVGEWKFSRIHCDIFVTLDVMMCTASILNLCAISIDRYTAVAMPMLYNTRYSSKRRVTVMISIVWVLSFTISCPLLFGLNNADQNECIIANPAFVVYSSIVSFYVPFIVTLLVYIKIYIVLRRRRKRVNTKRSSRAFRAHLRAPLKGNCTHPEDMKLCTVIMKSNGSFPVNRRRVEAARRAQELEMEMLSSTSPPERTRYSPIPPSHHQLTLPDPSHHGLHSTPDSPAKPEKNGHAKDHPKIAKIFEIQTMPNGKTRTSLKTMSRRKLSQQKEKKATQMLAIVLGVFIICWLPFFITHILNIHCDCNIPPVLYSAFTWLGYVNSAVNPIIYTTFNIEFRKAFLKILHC

[7] = target: D(2) dopamine receptor (Homo sapiens) (UniProt P14416); experiment: Inhibition of Dopamine D2S at 10.0 µM in the Eurofins Panlabs Safety Screen; details: Compound concentration 10.0 uM
[8] = target: Endothelin receptor type B (Homo sapiens) (UniProt P24530); experiment: Inhibition of Endothelin ETB at 10.0 µM in the Eurofins Panlabs Safety Screen; details: Compound concentration 10.0 uM
[9] = target: Insulin receptor (Homo sapiens) (UniProt P06213); experiment: Inhibition of Insulin at 10.0 µM in the Eurofins Panlabs Safety Screen; details: Rattus norvegicus; Compound concentration 10.0 uM
Chain of Insulin receptor (Homo sapiens) (P06213 28-758 limits assumed): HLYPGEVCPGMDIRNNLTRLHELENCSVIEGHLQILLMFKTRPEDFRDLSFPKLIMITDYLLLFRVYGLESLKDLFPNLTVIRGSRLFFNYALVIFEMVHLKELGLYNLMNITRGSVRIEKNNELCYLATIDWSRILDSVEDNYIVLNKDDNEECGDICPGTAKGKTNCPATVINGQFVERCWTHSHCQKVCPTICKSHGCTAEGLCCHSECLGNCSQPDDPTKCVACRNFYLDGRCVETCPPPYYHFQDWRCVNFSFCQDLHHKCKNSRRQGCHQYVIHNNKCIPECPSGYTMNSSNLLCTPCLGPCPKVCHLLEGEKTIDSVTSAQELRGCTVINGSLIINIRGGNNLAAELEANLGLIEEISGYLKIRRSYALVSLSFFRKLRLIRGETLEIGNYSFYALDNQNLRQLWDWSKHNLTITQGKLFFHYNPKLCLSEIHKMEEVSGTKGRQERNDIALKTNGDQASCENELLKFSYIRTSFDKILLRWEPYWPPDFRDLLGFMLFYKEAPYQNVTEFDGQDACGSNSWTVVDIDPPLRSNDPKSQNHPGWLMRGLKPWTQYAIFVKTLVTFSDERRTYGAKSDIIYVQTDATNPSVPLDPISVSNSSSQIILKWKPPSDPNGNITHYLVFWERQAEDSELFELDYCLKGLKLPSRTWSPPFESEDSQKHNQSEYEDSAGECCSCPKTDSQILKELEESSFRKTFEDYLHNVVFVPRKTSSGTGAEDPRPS
Chain of Insulin receptor (Homo sapiens) (P06213 763-1382 limits assumed): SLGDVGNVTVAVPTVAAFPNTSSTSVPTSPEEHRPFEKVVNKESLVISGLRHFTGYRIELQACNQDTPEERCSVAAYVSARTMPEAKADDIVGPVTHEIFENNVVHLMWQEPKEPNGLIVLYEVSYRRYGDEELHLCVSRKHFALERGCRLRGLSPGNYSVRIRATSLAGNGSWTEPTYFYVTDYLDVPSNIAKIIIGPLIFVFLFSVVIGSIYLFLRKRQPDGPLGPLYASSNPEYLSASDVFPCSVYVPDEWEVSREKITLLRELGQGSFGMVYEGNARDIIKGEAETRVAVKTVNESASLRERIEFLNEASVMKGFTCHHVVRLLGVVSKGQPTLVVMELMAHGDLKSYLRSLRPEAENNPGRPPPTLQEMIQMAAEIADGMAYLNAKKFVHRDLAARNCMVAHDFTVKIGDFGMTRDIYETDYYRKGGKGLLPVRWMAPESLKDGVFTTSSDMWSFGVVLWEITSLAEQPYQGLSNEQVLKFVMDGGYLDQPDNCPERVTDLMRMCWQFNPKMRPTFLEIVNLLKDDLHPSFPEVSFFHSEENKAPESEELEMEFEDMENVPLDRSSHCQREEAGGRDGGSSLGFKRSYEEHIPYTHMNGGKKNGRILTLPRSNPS

[10] = target: T1, 5-hydroxytryptamine receptor 1A (Homo sapiens) (UniProt P08908); details: Compound concentration 10.0 uM
T1 sequence (whole entry): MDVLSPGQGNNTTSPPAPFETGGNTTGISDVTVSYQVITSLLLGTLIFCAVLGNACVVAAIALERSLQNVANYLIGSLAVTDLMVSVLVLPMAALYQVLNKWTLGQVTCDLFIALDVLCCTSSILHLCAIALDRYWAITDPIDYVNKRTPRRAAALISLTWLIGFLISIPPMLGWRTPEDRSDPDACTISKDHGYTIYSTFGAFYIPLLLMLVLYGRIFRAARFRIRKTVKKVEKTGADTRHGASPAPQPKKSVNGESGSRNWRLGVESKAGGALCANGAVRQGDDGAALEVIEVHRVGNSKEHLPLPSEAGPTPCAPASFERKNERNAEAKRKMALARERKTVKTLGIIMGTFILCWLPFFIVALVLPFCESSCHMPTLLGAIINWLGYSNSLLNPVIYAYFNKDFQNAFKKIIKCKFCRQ

[11] = target: 5-hydroxytryptamine receptor 2A (Homo sapiens) (UniProt P28223); details: Compound concentration 10.0 uM
Chain of 5-hydroxytryptamine receptor 2A (Homo sapiens) (P28223 whole entry): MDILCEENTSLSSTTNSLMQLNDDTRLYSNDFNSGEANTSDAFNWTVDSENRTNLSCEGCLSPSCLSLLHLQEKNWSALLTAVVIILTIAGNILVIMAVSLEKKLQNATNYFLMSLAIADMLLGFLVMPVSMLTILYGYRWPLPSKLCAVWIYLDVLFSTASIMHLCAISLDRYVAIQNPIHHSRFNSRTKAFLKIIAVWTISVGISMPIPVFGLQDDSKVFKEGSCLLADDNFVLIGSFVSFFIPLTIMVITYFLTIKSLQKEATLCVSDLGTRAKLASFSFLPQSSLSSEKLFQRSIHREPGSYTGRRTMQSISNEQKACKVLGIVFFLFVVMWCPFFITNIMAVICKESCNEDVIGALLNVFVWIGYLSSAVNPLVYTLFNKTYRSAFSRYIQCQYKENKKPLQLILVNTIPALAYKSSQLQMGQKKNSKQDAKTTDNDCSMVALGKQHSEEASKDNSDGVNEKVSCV

[12] = target: 5-hydroxytryptamine receptor 2B (Homo sapiens) (UniProt P41595); details: Compound concentration 10.0 uM
Chain of 5-hydroxytryptamine receptor 2B (Homo sapiens) (P41595 whole entry): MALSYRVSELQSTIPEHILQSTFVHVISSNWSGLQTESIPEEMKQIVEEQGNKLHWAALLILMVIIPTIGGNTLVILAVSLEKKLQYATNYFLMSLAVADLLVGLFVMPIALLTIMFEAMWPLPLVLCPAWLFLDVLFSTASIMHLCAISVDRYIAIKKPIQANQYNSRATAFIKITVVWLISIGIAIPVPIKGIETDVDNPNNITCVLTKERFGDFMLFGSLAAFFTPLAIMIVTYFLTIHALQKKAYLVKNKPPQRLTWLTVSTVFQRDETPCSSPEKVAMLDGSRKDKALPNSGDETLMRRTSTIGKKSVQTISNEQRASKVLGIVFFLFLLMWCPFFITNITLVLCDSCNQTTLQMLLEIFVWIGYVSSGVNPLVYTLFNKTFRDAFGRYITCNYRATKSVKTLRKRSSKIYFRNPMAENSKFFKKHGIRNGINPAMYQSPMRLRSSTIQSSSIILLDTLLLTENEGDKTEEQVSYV

[13] = target: T2, 5-hydroxytryptamine receptor 2C (Homo sapiens) (UniProt P28335); details: Compound concentration 10.0 uM
T2 sequence (whole entry): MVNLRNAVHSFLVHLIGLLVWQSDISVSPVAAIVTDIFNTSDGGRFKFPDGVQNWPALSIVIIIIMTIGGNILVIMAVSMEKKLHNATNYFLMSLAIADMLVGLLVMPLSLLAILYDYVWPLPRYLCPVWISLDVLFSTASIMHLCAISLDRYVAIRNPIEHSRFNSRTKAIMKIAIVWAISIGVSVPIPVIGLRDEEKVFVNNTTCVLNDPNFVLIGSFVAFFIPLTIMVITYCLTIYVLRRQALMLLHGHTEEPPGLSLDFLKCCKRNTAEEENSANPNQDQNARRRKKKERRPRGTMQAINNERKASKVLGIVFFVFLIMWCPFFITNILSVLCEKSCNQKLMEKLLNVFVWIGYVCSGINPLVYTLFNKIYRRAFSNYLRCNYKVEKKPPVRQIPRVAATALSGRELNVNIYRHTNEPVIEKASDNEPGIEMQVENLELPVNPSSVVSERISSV

[14] = target: Sodium-dependent dopamine transporter (Homo sapiens, UniProt Q01959); details: Compound concentration 10.0 uM
Chain of Sodium-dependent dopamine transporter (Q01959 whole entry): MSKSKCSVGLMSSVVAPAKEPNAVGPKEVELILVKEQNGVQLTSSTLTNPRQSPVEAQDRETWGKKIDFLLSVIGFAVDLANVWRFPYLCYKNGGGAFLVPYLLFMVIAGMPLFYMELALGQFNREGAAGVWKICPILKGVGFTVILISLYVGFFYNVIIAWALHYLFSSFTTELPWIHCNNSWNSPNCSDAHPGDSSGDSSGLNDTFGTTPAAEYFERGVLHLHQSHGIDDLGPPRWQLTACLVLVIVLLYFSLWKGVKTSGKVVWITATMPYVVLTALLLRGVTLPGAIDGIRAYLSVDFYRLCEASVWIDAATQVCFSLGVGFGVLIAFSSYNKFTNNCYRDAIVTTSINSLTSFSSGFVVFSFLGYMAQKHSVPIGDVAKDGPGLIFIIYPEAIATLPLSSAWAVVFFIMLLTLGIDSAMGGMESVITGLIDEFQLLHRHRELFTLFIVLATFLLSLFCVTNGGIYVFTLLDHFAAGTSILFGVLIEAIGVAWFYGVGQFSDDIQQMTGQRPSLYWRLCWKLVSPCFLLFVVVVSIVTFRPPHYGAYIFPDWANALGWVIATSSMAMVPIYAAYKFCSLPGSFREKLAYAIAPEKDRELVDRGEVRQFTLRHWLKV

[15] = target: Alpha-1B adrenergic receptor (Homo sapiens) (UniProt P35368); details: Compound concentration 10.0 uM
Chain of Alpha-1B adrenergic receptor (Homo sapiens) (P35368 whole entry): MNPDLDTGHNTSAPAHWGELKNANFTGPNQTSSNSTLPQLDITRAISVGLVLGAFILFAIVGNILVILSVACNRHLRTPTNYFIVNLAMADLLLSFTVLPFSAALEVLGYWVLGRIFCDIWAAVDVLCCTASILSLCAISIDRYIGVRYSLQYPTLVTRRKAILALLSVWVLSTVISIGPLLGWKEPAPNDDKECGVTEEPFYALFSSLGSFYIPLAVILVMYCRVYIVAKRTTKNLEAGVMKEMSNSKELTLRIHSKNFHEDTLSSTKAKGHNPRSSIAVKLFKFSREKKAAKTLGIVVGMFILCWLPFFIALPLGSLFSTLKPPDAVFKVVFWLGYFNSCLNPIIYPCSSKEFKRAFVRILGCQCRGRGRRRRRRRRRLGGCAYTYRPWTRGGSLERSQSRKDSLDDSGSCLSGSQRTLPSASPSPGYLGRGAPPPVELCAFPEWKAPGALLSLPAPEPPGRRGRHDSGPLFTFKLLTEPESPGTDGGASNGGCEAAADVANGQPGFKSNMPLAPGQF

[16] = target: T3, Alpha-2A adrenergic receptor (Homo sapiens) (UniProt P08913); details: Compound concentration 10.0 uM
T3 sequence (whole entry): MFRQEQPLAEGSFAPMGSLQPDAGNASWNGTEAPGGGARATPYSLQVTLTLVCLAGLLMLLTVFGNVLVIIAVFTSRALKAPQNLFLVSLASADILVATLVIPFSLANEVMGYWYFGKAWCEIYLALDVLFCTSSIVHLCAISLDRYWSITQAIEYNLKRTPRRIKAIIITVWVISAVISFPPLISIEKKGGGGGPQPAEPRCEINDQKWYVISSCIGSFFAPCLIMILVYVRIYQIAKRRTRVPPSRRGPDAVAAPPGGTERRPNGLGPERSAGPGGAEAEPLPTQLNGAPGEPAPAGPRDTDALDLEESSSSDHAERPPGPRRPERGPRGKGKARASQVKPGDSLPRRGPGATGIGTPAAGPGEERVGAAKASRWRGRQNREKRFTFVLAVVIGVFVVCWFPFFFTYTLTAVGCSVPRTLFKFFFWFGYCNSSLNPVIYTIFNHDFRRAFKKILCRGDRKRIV

[17] = target: T4, Alpha-2B adrenergic receptor (Homo sapiens) (UniProt P18089); details: Compound concentration 10.0 uM
T4 sequence (whole entry): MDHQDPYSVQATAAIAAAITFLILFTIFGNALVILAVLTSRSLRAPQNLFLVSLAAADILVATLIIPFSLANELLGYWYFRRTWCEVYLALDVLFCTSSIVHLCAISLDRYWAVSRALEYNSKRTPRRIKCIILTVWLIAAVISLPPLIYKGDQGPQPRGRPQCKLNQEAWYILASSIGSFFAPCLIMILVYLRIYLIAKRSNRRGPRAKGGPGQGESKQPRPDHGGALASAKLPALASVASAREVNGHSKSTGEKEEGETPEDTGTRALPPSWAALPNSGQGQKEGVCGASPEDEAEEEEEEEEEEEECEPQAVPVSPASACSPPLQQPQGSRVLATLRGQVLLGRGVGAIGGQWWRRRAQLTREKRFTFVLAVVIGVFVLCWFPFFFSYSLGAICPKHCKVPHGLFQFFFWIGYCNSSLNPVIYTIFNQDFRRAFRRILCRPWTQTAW

| SMILES | inhibition [1] [%] | inhibition [2] [%] | inhibition [3] [%] | inhibition [4] [%] | inhibition [5] [%] | inhibition [6] [%] | inhibition [7] [%] | inhibition [8] [%] | inhibition [9] [%] | inhibition [10] [%] | inhibition [11] [%] | inhibition [12] [%] | inhibition [13] [%] | inhibition [14] [%] | inhibition [15] [%] | inhibition [16] [%] | inhibition [17] [%] |
| --- | --- | --- | --- | --- | --- | --- | --- | --- | --- | --- | --- | --- | --- | --- | --- | --- | --- |
| O=C1NCCCC1N1Cc2cc(C3CCN(C(=O)CCCCCN4CCC(c5ccc(Oc6nn7cnnc7c7c6CCCC7)cc5)CC4)CC3)ccc2C1=O (centres undefined) | 16.7 | 1 | 21 | 10 | -2 | 22 | 13 | -5 | -5 | 35.3 | 21 | -7.97 | 3.95 | 51.4 | 2.86 | 29.3 | 8.66 |
| O=C1CCC(N2Cc3cc(C4CCN(C(=O)CCCCCN5CCC(c6ccc(Oc7nn8cnnc8c8c7CCCC8)cc6)CC5)CC4)ccc3C2=O)C(=O)N1 (centres undefined) | 13.9 | -7 | 32 | 0 | -6 | 22 | -8 | 2 | -7 | 7.96 | 18.6 | 19.9 | 5.83 | 50.7 | 6.88 | 33.1 | 8.76 |
